The source made the active and inactive calls. The rule behind the calls is not given here.
Tests used:
[1] = Cytotoxicity against LPS/IFNgamma-stimulated mouse RAW264.7 cells assessed as cell viability at 26 uM after 48 hrs by MTT method (reference value: 100 +/- 1.8%); assay type: cell-based; conditions: LPS/IFNgamma-stimulated RAW264.7 cells, read-out: Activity
[2] = system: J774.A1; assay: Inhibition of TNFalpha production in LPS/IFNgamma-stimulated mouse J774A1 cells assessed as TNFalpha level at 6.5 uM by ELISA method (reference value: 89.2 +/- 17.1 pg/mL); assay type: functional
[3] = system: RAW264.7; assay: Inhibition of TNFalpha production in LPS/IFNgamma-stimulated mouse RAW264.7 cells assessed as TNFalpha level at 6.5 uM by ELISA method; assay type: functional, cell-based
[4] = system: J774.A1; assay: Inhibition of nitric oxide production in LPS/IFNgamma-stimulated mouse J774A1 cells assessed as nitrites level at 13 uM by Griess method (reference value: 16.5 +/- 1.4 uM); assay type: functional
[5] = system: J774.A1; assay: Inhibition of nitric oxide production in LPS/IFNgamma-stimulated mouse J774A1 cells assessed as nitrites level at 6.5 uM by Griess method (reference value: 16.5 +/- 1.4 uM); assay type: functional
[6] = system: J774.A1; assay: Inhibition of nitric oxide production in LPS/IFNgamma-stimulated mouse J774A1 cells assessed as nitrites level at 26 uM by Griess method (reference value: 16.5 +/- 1.4 uM); assay type: functional
[7] = Cytotoxicity against LPS/IFNgamma-stimulated mouse J774A1 cells assessed as cell viability at 6.5 uM after 48 hrs by MTT method (reference value: 100 +/- 1.1%); assay type: cell-based, J774.A1; conditions: read-out: Activity
[8] = Cytotoxicity against LPS/IFNgamma-stimulated mouse J774A1 cells assessed as cell viability at 13 uM after 48 hrs by MTT method (reference value: 100 +/- 1.1%); assay type: cell-based, J774.A1; conditions: read-out: Activity
[9] = Cytotoxicity against LPS/IFNgamma-stimulated mouse J774A1 cells assessed as cell viability at 26 uM after 48 hrs by MTT method (reference value: 100 +/- 1.1%); assay type: cell-based, J774.A1; conditions: read-out: Activity
[10] = system: RAW264.7; assay: Inhibition of nitric oxide production in LPS/IFNgamma-stimulated mouse RAW264.7 cells assessed as nitrites level at 6.5 uM by Griess method (reference value: 6.4 +/- 0.5 uM); assay type: functional
[11] = system: RAW264.7; assay: Inhibition of nitric oxide production in LPS/IFNgamma-stimulated mouse RAW264.7 cells assessed as nitrites level at 13 uM by Griess method (reference value: 6.4 +/- 0.5 uM); assay type: functional
[12] = system: RAW264.7; assay: Inhibition of nitric oxide production in LPS/IFNgamma-stimulated mouse RAW264.7 cells assessed as nitrites level at 26 uM by Griess method (reference value: 6.4 +/- 0.5 uM); assay type: functional
[13] = Cytotoxicity against LPS/IFNgamma-stimulated mouse RAW264.7 cells assessed as cell viability at 6.5 uM after 48 hrs by MTT method (reference value: 100 +/- 1.8%); assay type: cell-based; conditions: LPS/IFNgamma-stimulated RAW264.7 cells, read-out: Activity
[14] = Cytotoxicity against LPS/IFNgamma-stimulated mouse RAW264.7 cells assessed as cell viability at 13 uM after 48 hrs by MTT method (reference value: 100 +/- 1.8%); assay type: cell-based; conditions: LPS/IFNgamma-stimulated RAW264.7 cells, read-out: Activity

Structure (SMILES)	viability at 48 h, 26 µM [1] [%]	inhibition [2]	inhibition [3]	Activity [4] [µM]	Activity [5] [µM]	Activity [6] [µM]	viability at 48 h, 6.5 µM [7] [%]	viability at 48 h, 13 µM [8] [%]	viability at 48 h, 26 µM [9] [%]	Activity [10] [µM]	Activity [11] [µM]	Activity [12] [µM]	viability at 48 h, 6.5 µM [13] [%]	viability at 48 h, 13 µM [14] [%]	Activity [2] [pg/mL]
CC1(C)O[C@H]2[C@@H](O1)[C@@H](COc1ccc(-c3coc4cc(OC[C@H]5O[C@@H]6OC(C)(C)O[C@@H]6[C@H]6OC(C)(C)O[C@H]65)cc(O)c4c3=O)cc1)O[C@@H]1OC(C)(C)O[C@@H]12	94.4	inactive	inactive	11.8	9.8	12.3	89.7	87.3	83.6	2.6	2.7	2.4	98.9	89.4	
CO[C@H]1O[C@H](COc2cc(O)c3c(=O)c(-c4ccc(O)cc4)coc3c2)[C@@H](O)[C@H](O)[C@H]1O	78.3	inactive	inactive	11.3	7.2	14.3	68.1	64.3	44.9	1.4	1	1.7	91.3	88.1	
CO[C@H]1O[C@H](COc2ccc(-c3coc4cc(OC[C@H]5O[C@H](OC)[C@H](OC(C)=O)[C@@H](OC(C)=O)[C@@H]5OC(C)=O)cc(O)c4c3=O)cc2)[C@@H](OC(C)=O)[C@H](OC(C)=O)[C@H]1OC(C)=O	101		inactive	12.1	11.5	11.7	82.1	86.7	87.9	1.9	2.5	4.1	103	98.4	51.9
CC1(C)O[C@H]2[C@@H](O1)[C@@H](COc1cc(O)c3c(=O)c(-c4ccc(O)cc4)coc3c1)O[C@@H]1OC(C)(C)O[C@@H]12	71.3	inactive	inactive	12.8	17.7	0.7	102	85.5	30.3	2.4	2.5	3.1	87.6	88.1	
CO[C@H]1O[C@H](COc2cc(O)c3c(=O)c(-c4ccc(O)cc4)coc3c2)[C@@H](OC(C)=O)[C@H](OC(C)=O)[C@H]1OC(C)=O	103		inactive	13.1	12.7	10.4	94.7	92.7	87.4	2.1	4.2	2.4	103	104	51.7
O=c1c(-c2ccc(O)cc2)coc2cc(O)cc(O)c12 [GENISTEIN]	108	inactive		13.8	13.4	14.5	112	104	110	6.3	6.3	6.1	128	103	
O=c1c(-c2ccc(O)cc2)coc2cc(OC[C@H]3O[C@H](O)[C@H](O)[C@@H](O)[C@H]3O)cc(O)c12	95.8		inactive	10.9	9.7	9.1	93.6	95.2	88.9	1.4	0	0	95.9	98.2	38.3
CO[C@H]1O[C@H](COc2ccc(-c3coc4cc(OC[C@H]5O[C@H](OC)[C@H](O)[C@@H](O)[C@@H]5O)cc(O)c4c3=O)cc2)[C@@H](O)[C@H](O)[C@H]1O	92.2	inactive	inactive	9.1	8.7	8.5	99.9	96.6	94.8	0	0	0	93.6	99.2	

Reference: ChEMBL document CHEMBL3351950, “Synthesis of genistein coupled with sugar derivatives and their inhibitory effect on nitric oxide production in macrophages” (Eur J Med Chem, 2014)
